Data as given in patent publication US10435396B2, “2-substituted indazoles, methods for producing same, pharmaceutical preparations that contain same, and use of same to produce drugs” (Bayer Pharma Aktiengesellschaft, priority 2016, dated 2019).
pIC50: −log10 of the molar value.

molecular target: human IRAK4 (Homo sapiens (Human), UniProt Q9NWZ3); experiment: IRAK4 kinase assay (IRAK4 TR-FRET assay); format: biochemical; settings: 1 mM ATP
Description: The IRAK4-inhibitory activity of the substances according to the invention was measured in the IRAK4 TR-FRET assay (TR-FRET=Time Resolved Fluorescence Resonance Energy Transfer) described hereinafter.
Recombinant fusion protein from N-terminal GST (glutathione S-transferase) and human IRAK4, expressed in baculovirus-infected insect cells (Hi5, BTI-TN-5B1-4, cell line purchased from Invitrogen, catalogue No. B855-02) and purified via affinity chromatography, was used as enzyme. The substrate used for the kinase reaction was the biotinylated peptide biotin-Ahx-[…] (C-terminus in amide form) which can be purchased, for example, from Biosyntan GmbH (Berlin-Buch).
For the assay, 11 different concentrations in the range from 20 μM to 0.073 nM were prepared from a 2 mM solution of the test substance in DMSO. 50 nl of the respective solution were pipetted into a black low-volume 384-well microtitre plate (Greiner Bio-One, Frickenhausen, Germany), 2 μl of a solution of IRAK4 in assay buffer [50 mM HEPES pH 7.5, 5 mM MgCl2, 1.0 mM dithiothreitol, 30 μM activated sodium orthovanadate, 0.1% (w/v) of bovine gamma-globulin (BGG) 0.04% (v/v) nonidet-P40 (Sigma)] were added and the mixture was incubated for 15 min to allow prebinding of the substances to the enzyme prior to the kinase reaction. The kinase reaction was then started by addition of 3 μl of a solution of adenosine triphosphate (ATP, 1.67 mM=final concentration in 5 μl of assay volume: 1 mM) and peptide substrate (0.83 μM=final concentration in 5 μl assay volume: 0.5 μM) in assay buffer, and the resulting mixture was incubated at 22° C. for the reaction time of 45 min. The concentration of the IRAK4 was adjusted to the respective activity of the enzyme and set such that the assay was carried out in the linear range. Typical concentrations were in the order of about 0.2 nM. The reaction was stopped by addition of 5 μl of a solution of TR-FRET detection reagents [0.1 μM streptavidin-XL665 (Cisbio Bioassays; France, catalogue No. 610SAXLG)] and 1.5 nM anti-phosphoserine antibody [Merck Millipore, “STK Antibody”, catalogue No. 35-002] and 0.6 nM LANCE EU-W1024-labelled anti-mouse-IgG antibody (Perkin-Elmer, product No. AD0077; alternatively, it is possible to use a terbium cryptate-labelled anti-mouse-IgG antibody from Cisbio Bioassays) in aqueous EDTA solution (100 mM EDTA, 0.4% [w/v] bovine serum albumin [BSA] in 25 mM HEPES pH 7.5).
The resulting mixture was incubated at 22° C. for 1 h to allow formation of a complex of the biotinylated phosphorylated substrate and the detection reagents. The amount of the phosphorylated substrate was then evaluated by measuring the resonance energy transfer from europium chelate-labelled anti-mouse-IgG antibody to streptavidin-XL665. To this end, the fluorescence emissions at 620 nm and 665 nm were measured after excitation at 350 nm in a TR-FRET measuring instrument, for example a Rubystar (BMG Labtechnologies, Offenburg, Germany) or a Viewlux (Perkin-Elmer). The ratio of the emissions at 665 nm and 622 nm was taken as a measure of the amount of phosphorylated substrate. The data were normalized (enzyme reaction without test substance=0% inhibition; all other assay components but no enzyme=100% inhibition). Typically, the test substances were tested on the same microtitre plates at 11 different concentrations in the range from 20 μM to 0.073 nM (20 μM, 5.7 μM, 1.6 μM, 0.47 μM, 0.13 μM, 38 nM, 11 nM, 3.1 nM, 0.89 nM, 0.25 nM and 0.073 nM). The dilution series were prepared prior to the assay (2 mM to 7.3 nM in 100% DMSO) by serial dilutions. The IC50 values were calculated using a 4-parameter fit.

human IRAK4, sequence (Q9NWZ3 whole entry): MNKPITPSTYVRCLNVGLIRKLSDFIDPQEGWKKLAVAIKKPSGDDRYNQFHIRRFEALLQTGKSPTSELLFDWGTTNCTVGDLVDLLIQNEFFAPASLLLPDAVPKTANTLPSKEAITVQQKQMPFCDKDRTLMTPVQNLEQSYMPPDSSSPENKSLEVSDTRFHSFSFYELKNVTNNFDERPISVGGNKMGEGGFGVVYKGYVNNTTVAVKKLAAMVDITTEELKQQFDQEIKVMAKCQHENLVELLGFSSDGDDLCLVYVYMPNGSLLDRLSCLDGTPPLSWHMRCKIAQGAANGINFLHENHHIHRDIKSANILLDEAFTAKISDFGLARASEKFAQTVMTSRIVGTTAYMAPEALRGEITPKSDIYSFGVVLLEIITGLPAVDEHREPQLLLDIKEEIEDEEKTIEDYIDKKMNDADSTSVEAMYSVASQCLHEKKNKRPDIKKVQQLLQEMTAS

Structure (SMILES) | pIC50
COc1cc2nn(C3CCOCC3)cc2cc1NC(=O)c1nc(C(F)(F)F)cs1 [Example 47, N-[6-Methoxy-2-(tetrahydro-2H-pyran-4-yl)-2H-indazol-5-yl]-4-(trifluoromethyl)-1,3-thiazole-2-carboxamide] | 7.19
COc1cc2nn(C3CCN(C4CCN(C)CC4)CC3)cc2cc1NC(=O)c1cccc(C(F)(F)F)n1 [Example 6, N-[6-Methoxy-2-(1′-methyl-1,4′-bipiperidin-4-yl)-2H-indazol-5-yl]-6-(trifluoromethyl)pyridine-2-carboxamide] | 8.70
CC(C)(O)c1cc2nn([C@H]3CCS(=O)(=O)C3)cc2cc1NC(=O)c1cccc(C(F)(F)F)n1 [Example 41, N-{2-[(3S)-1,1-Dioxidotetrahydrothiophen-3-yl]-6-(2-hydroxypropan-2-yl)-2H-indazol-5-yl}-6-(trifluoromethyl)pyridine-2-carboxamide] | 7.80
COc1cc2nn(C3CCS(=O)(=O)CC3)cc2cc1NC(=O)c1cccc(C(F)(F)F)n1 [Example 11, N-[2-(1,1-Dioxidotetrahydro-2H-thiopyran-4-yl)-6-methoxy-2H-indazol-5-yl]-6-(trifluoromethyl)pyridine-2-carboxamide] | 8.52
COc1cc2nn(C3CCN(CCN(C)C)CC3)cc2cc1NC(=O)c1cccc(C(F)(F)F)n1 [Example 9, N-(2-{1-[2-(Dimethylamino)ethyl]piperidin-4-yl}-6-methoxy-2H-indazol-5-yl)-6-(trifluoromethyl)pyridine-2-carboxamide] | 9.00
COc1cc2nn(C3CCOCC3)cc2cc1NC(=O)c1nc(-c2ccncc2)no1 [Example 48, N-[6-Methoxy-2-(tetrahydro-2H-pyran-4-yl)-2H-indazol-5-yl]-3-(pyridin-4-yl)-1,2,4-oxadiazole-5-carboxamide] | 6.16
COc1cc2nn(C3CCOCC3)cc2cc1NC(=O)c1nc(C)no1 [Example 49, N-[6-Methoxy-2-(tetrahydro-2H-pyran-4-yl)-2H-indazol-5-yl]-3-methyl-1,2,4-oxadiazole-5-carboxamide] | 5.42

More lines, now with the values ahead:

pIC50 | Structure (SMILES)
7.12 | O=C(Nc1cc2cn(C3CCNCC3)nc2cc1C(=O)O)c1cccc(C(F)(F)F)n1 [Example 54, 2-(Piperidin-4-yl)-5-({[6-(trifluoromethyl)pyridin-2-yl]carbonyl}amino)-2H-indazole-6-carboxylic Acid]
9.00 | COC(=O)c1cc2nn(C3CCN(C)CC3)cc2cc1NC(=O)c1cccc(C(F)(F)F)n1 [Example 55, Methyl 2-(1-methylpiperidin-4-yl)-5-({[6-(trifluoromethyl)pyridin-2-yl]carbonyl}amino)-2H-indazole-6-carboxylate]
6.30 | O=C(Nc1cc2cn(C3CCOCC3)nc2cc1Cl)c1nc(C(F)(F)F)cs1 [Example 50, N-[6-Chloro-2-(tetrahydro-2H-pyran-4-yl)-2H-indazol-5-yl]-4-(trifluoromethyl)-1,3-thiazole-2-carboxamide]
8.40 | CC(C)(O)CCN1CCC(n2cc3cc(NC(=O)c4cccc(C(F)(F)F)n4)c(C(N)=O)cc3n2)CC1 [Example 56, 2-[1-(3-Hydroxy-3-methylbutyl)piperidin-4-yl]-5-({[6-(trifluoromethyl)pyridin-2-yl]carbonyl}amino)-2H-indazole-6-carboxamide]
8.22 | COc1cc2nn(C3CCOCC3)cc2cc1NC(=O)c1ccn(C(F)F)n1 [Example 51, 1-(Difluoromethyl)-N-[6-methoxy-2-(tetrahydro-2H-pyran-4-yl)-2H-indazol-5-yl]-1H-pyrazole-3-carboxamide]
8.70 | COCCN1CCC(n2cc3cc(NC(=O)c4cccc(C(F)(F)F)n4)c(OC)cc3n2)CC1 [Example 58, N-{6-Methoxy-2-[1-(2-methoxyethyl)piperidin-4-yl]-2H-indazol-5-yl}-6-(trifluoromethyl)pyridine-2-carboxamide]
9.00 | NC(=O)c1cc2nn(C3CCNCC3)cc2cc1NC(=O)c1cccc(C(F)(F)F)n1 [Example 53, 2-(Piperidin-4-yl)-5-({[6-(trifluoromethyl)pyridin-2-yl]carbonyl}amino)-2H-indazole-6-carboxamide]
